Results on six compounds are retold here after patent US20110183336A1, “Method to Predict Responsiveness of Breast Cancer to Polyamine-Type Chemotherapy” (THE REGENTS OF THE UNIVERSITY OF CALIFORNIA, priority 2007, published 2011).

A value given as a limit tells only on which side of the number the result lay.

Common to all, as to format: cell-based
Experiment [1] relates to human brain cancer cell line U251MG-NCI. Kind of experiment: Colony formation (plating efficiency) standard protocol. As for the experimental part: (§1) Cell lines and media: Human breast cancer cell line MCF7 was grown in Richter's Improved Modified Eagle's Medium supplemented with 10% fetal bovine serum (FBS) and 2.2 g/L sodium bicarbonate. Human brain cancer cell line U251MG-NCI was grown in Dulbecco's Modified Eagle's Medium supplemented with 10% FBS. Human lung cancer cell line A549 was grown in Ham's F-12K medium (Fisher Scientific, Itasca, Ill.), supplemented with 10% FBS and 2 mM L-glutamine. Human colon cancer cell line HT29 was cultured in McCoy's 5A medium (Gibco, BRL, Gaithersburg, Md.), supplemented with 10% FBS. Human prostate cancer cell line PC3 was grown in Dulbecco's Modified Eagles Medium supplemented with 5% FBS. The A549 and MCF7 cell lines were cultured in 100 units/mL penicillin and 100 μg/mL streptomycin. HT29 and U251MG cell lines were grown in 50 μg/mL gentamycin. PC3 cell lines were maintained in 1% antibiotic-antimycotic solution (Sigma, St. Louis, Mo.). The cell cultures were maintained at 37° C. in 5% CO2/95% humidified air. All cell cultures are available from the American Type Culture Collection, Rockville, Md.
(§2) A standardized protocol was used to evaluate these test cultures:
(§3) Day 1: Ten standard culture flasks for each drug to be tested were plated with 5×10^5 cells of a given type in 5 mL of media and allowed to incubate for 16-24 hours at 37° C.
(§4) Day 2: Fresh stocks of the compounds to be evaluated are prepared. For each drug, two of the ten culture flasks prepared on Day 1 are used as controls. The control flasks are treated with solvent only. Four flasks for each compound are then treated with serially-diluted concentrations of the compound. The remaining flasks are left untouched. The cells are incubated for 4 hours at 37° C.
(§5) After 4 hours the control flasks are counted (2 counts for each flask) and the cells per mL calculated based on the average of the control counts. The cells are then re-plated into six 60 mm dishes for each flask from dilutions based on the cells/mL of the control. (In the various test runs, cell concentrations ranged from approximately 50 to approximately 800 cells per mL.)
(§6) Day 15-20: The cells are monitored for colony formation. When visible, the cells are stained with 0.5% crystal violet (in 95% EtOH) and counted. The plating efficiency for each dish is then calculated. The plating efficiencies of the six dishes for each flask are averaged and the standard deviation is calculated. The fraction of cell survival at each concentration is determined based on the controls.

A further experiment concerns MCF7. The experiment in a line: MTT assay, percent cell survival. Conditions: Homo sapiens, MCF7, 144 h, six days after drug treatment, read-out: ID50(μM) MCF7. How it is done:
as §1
(§7) Here, a conventional MTT assay was used to evaluate percent cell survival. Exponentially growing monolayer cells were plated in 96-well plates at a density of 500 cells per well and allowed to grow for 24 hours. Serial dilutions of the drugs were added to the wells. Six days after drug treatment, 25 μl of MTT solution (5 mg/ml) was added to each well and incubated for 4 hours at 37° C. Then 100 μl of lysis buffer (20% sodium dodecyl sulfate, 50% DMF, and 0.8% acetic acid, pH 4.7) was added to each well and incubated for an additional 22 hours. A microplate reader (“EMAX”-brand, Molecular Devices, Sunnyvale, Calif.) set at 570 nm was used to determine the optical density of the cultures. Results are expressed as a ratio of the optical density in drug-treated wells to the optical density in wells treated with vehicle only.
(§8) The ID50 is the drug concentration that killed 50% of the cultured cells.
A general note: Tetrazolium assays rely on reduction of a dye to a coloured formazan, in cell work by metabolically active cells.

The next experiment deals with U251MG NCl. Kind of experiment: MTT assay, percent cell survival. Conditions: Homo sapiens, U-251, 144 h, six days after drug treatment, read-out: ID50(μM) U251MG NCl. How it is done:
as §1, §7, §8

The next experiment deals with HT-29. The experiment in a line: MTT assay, percent cell survival. The conditions noted are these: Homo sapiens, HT-29, 144 h, HT-29, MTT, six days after drug treatment; read-out: ID50(μM) HT-29. As for the experimental part:
as §1, §7, §8

The subject of another experiment is PC-3. The experiment in a line: MTT assay, percent cell survival. Conditions: Homo sapiens, PC-3, 144 h, PC-3, MTT, six days after drug treatment; read-out: ID50(μM) PC-3. As for the experimental part: as §1, §7, §8
The subject of experiment [2] is Human breast cancer cell line MCF7. Kind of experiment: Colony formation (plating efficiency) standard protocol. The conditions noted are these: MCF7, MCF7, 4 hours exposure, colony formation day 15-20, read-out: ED50 (the source's name). As for the experimental part: as §1, §2, §3, §4, §5, §6
A further experiment has as its system A549. Kind of experiment: MTT assay, percent cell survival. Conditions: Homo sapiens, A549, 144 h, six days after drug treatment, read-out: ID50(μM) A549. As for the experimental part:
Human brain cancer cell line U251MG-NCI was grown in Dulbecco's Modified Eagle's Medium supplemented with 10% FBS. […] Human prostate cancer cell line PC3 was grown in Dulbecco's Modified Eagles Medium supplemented with 5% FBS. […] The cell cultures were maintained at 37° C. in 5% CO2/95% humidified air.
as §7, §8

As to `CCNCCCNC1CC1NCCCNCC` (stereo not drawn) [SL-11027], the “inhibition of cell growth” value in experiment [1] (10 μM dose) was “marked inhibition of cell growth”.

In the case of `CCNCCCNC1CCC1NCCCNCC` (stereo not drawn) [SL-11034], in experiment [1] (40 μM dose), the “inhibition of cell growth” value is “marked inhibition of cell growth”.

For `CCNCCCNCC1CC1CNCCCNCC` (stereo not drawn) [SL-11037], the IC50 with MCF7 is over 31.2 µM; with U251MG NCl it was 0.1 µM; in the experiment on HT-29 it was 1.6 µM; with PC-3, 7.4 µM.

As for `CCNCCCNCC1CC1CNCCCNCC` (stereo not drawn) [SL-11038], the EC50 in experiment [2] is 1.34 µM.

As to `CCNCCCNCC1CCC1CNCCCNCC` (stereo not drawn) [SL-11043], in experiment [2], the EC50 is 1.64 µM. In addition, the results for the IC50 with MCF7, in the experiment on U251MG NCl and in the experiment with HT-29 were 25.5 µM, 0.1 µM and 1.5 µM, respectively.

`CCNCCCNCC1CCC1CNCCCNCC` (stereo not drawn) [SL-11044]: the IC50 with A549 was 0.3 µM.
